Laboratory results as given in patent US20100029643A1 (ASTRAZENECA AB, priority 2006, published 2010).

Biological target: T1, Edg-1/S1P1 receptor (Homo sapiens, UniProt P21453)
T1 construct: expressed in transfected cells; host or cells: human osteogenic sarcoma U2OS cells: Edg-1 Transfluor U2OS WT Clone #37 (assay I), Edg-1 Transfluor U2OS Clone #3 (assay II)
Test: In vitro cell based receptor activation assay - Transfluor assay (assay I or II; beta-arrestin GFP relocalization after S1P stimulation)
Details: for inhibition at 3.5 µM: at 3.50 μM (titrated from top concentration 10 μM); for inhibition at 3.7 µM: at 3.70 μM (titrated from top concentration 100 μM)
How it was run: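 U2OS cells overexpressing S1P1 with a beta-arrestin-GFP construct were pre-incubated with compound for 15 min at room temperature, then stimulated with S1P for 45 min at 37 °C. In assay I, final S1P was 375 nM or 750 nM and compound was a 9-point 3-fold series from 100 μM, in 1% DMSO. Cells were fixed and Hoechst-stained, GFP relocalization was imaged, and EC50 values were fitted.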

T1 sequence (P21453 whole entry): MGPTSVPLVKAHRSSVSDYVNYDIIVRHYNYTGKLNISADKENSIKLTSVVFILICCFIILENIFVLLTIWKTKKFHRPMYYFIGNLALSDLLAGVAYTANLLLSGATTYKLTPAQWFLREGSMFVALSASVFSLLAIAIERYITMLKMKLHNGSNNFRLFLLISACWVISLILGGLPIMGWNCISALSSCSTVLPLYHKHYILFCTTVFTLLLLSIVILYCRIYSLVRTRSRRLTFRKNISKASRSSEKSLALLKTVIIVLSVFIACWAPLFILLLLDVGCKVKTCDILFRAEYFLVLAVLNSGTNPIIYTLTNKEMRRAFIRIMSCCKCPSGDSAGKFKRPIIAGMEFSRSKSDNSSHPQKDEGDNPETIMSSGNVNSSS

| inhibition at 3.5 µM [%] | inhibition at 3.7 µM [%] | Structure (SMILES) | further results |
| --- | --- | --- | --- |
| 79.4 |  | CCn1c([C@@H](C)NS(=O)(=O)c2ccc(OC)c(OC)c2)nc2ccc(C(F)(F)F)cc21 [Example 124, N-{(1R)-1-[1-Ethyl-6-(trifluoromethyl)-1H-benz-imidazol-2-yl]ethyl}-3,4-di-methoxybenzenesulfonamide] |  |
|  | 91.2 | CC(NS(=O)(=O)c1ccc(Cl)cc1)c1nc2ccccc2n1C (centres unmarked) [Example 8, 4-Chloro-N-[1-(1-methyl-1H-benzimidazol-2-yl)ethyl]-benzenesulfonamide] |  |
| 87.8 |  | CCn1c([C@@H](C)NS(=O)(=O)c2ccc(C(N)=O)nc2)nc2cnc(C3CC3)cc21 [Example 174, 5-[1-(6-Cyclopropyl-1-ethyl-1H-imidazo[4,5-c]pyridin-2-yl)-ethylsulfamoyl]-pyridine-2-carboxylic acid amide] |  |
|  | 94.9 | CCn1c([C@@H](C)NS(=O)(=O)c2ccc(Cl)cc2)nc2ccc(SC)cc21 (stereo in doubt) [Example 79, 4-Chloro-N-{1-[1-ethyl-6-(methylthio)-1H-benzimidazol-2-yl]ethyl}benzenesulfonamide] |  |
|  | 78.2 | CCn1c([C@@H](C)NS(=O)(=O)c2ccc(Cl)cc2)nc2cc(Cl)cc(Cl)c21 [Example 58, 4-Chloro-N-[(1R)-1-(5,7-dichloro-1-ethyl-1H-benzimidazol-2-yl)ethyl]benzenesulfonamide] |  |
|  | 59.3 | CCn1c([C@@H](C)NS(=O)(=O)c2ccc(Cl)cc2)nc2cc(C3CC3)ccc21 [Example 84, 4-Chloro-N-[(1R)-1-(5-cyclopropyl-1-ethyl-1H-benzimidazol-2-yl)ethyl]benzenesulfonamide] |  |
|  | 49 | CCn1c([C@@H](C)NS(=O)(=O)c2cnc(NC(C)=O)s2)nc2ccc(C(F)(F)F)cc21 [Example 36, N-{5-[({(1R)-1-[1-Ethyl-6-(trifluoromethyl)-1H-benzimidazol-2-yl]ethyl}amino)sulfonyl]-1,3-thiazol-2-yl}acetamide] |  |
|  | 66.1 | CCn1c([C@@H](C)NS(=O)(=O)C2CCCC2)nc2ccc(C(F)(F)F)cc21 [Example 28, N-{(1R)-1-[1-Ethyl-6-(trifluoromethyl)-1H-benzimidazol-2-yl]ethyl} cyclopentanesulfonamide] |  |
| 90.7 |  | CCn1c([C@@H](C)NS(=O)(=O)c2ccc(Cl)cc2)nc2ccc(C)cc21 [Example 89, 4-Chloro-N-[(1R)-1-(1-ethyl-6-methyl-1H-benzimidazol-2-yl)ethyl]benzenesulfonamide] |  |
| 8.27 |  | CCn1c(C(C)(C)NS(=O)(=O)c2ccc(C(N)=O)nc2)nc2ncccc21 [Example 178, 5-({[1-(1-Ethyl-1H-imidazo[4,5-b]pyridin-2-yl)-1-methylethyl]amino}sulfonyl)pyridine-2-carboxamide] |  |
|  | 94.5 | CCn1c(C(C)NS(=O)(=O)c2ccc(Cl)cc2)nc2ccc(C(F)(F)F)cc21 (centres unmarked) [Example 99, 4-Chloro-N-{1-[1-ethyl-6-(trifluoromethyl)-1H-benzimidazol-2-yl]ethyl}benzenesulfonamide] |  |
| 78 |  | CCn1c([C@@H](C)NS(=O)(=O)c2cnn(C(C)C)c2C)nc2ccc(C(F)(F)F)cc21 [Example 118, N-{(1R)-1-[1-Ethyl-6-(trifluoromethyl)-1H-benzimidazol-2-yl]ethyl}-1-isopropyl-5-methyl-1H-pyrazole-4-sulfonamide] |  |
| 95.9 |  | CCn1c([C@@H](C)NS(=O)(=O)c2ccc(Cl)cc2)nc2cnc(C(F)(F)F)cc21 [Example 147, (R)-4-Chloro-N-(1-(1-ethyl-6-(trifluoromethyl)-1H-imidazo[4,5-c]pyridin-2-yl)ethyl)benzenesulfonamide] |  |
|  | 21.8 | CCn1c([C@@H](C)NS(=O)(=O)c2ccc(NC(C)=O)c(C)c2)nc2ccc(C(F)(F)F)cc21 [Example 29, N-{4-[({(1R)-1-[1-Ethyl-6-(trifluoromethyl)-1H-benzimidazol-2-yl]ethyl}amino)sulfonyl]-2-methylphenyl}acetamide] |  |
|  | 10.3 | CCn1c([C@@H](C)NS(=O)(=O)c2ccc(Cl)cc2)nc2cc(-c3cccnc3)ccc21 [Example 82, 4-Chloro-N-[(1R)-1-(1-ethyl-5-pyridin-3-yl-1H-benzimidazol-2-yl)ethyl]benzenesulfonamide] |  |
| 93.3 |  | CCn1c([C@@H](C)NS(=O)(=O)c2ccc(C(N)=O)nc2)nc2ccc(C(F)(F)F)cc21 [Example 106, (R)-5-(N-(1-(1-Ethyl-6-(trifluoromethyl)-1H-benzo[d]imidazol-2-yl)ethyl)sulfamoyl)picolinamide] |  |
| 81.9 |  | CCn1c([C@@H](C)NS(=O)(=O)c2ccc(C#N)nc2)nc2cnc(C3CC3)cc21 [Example 173, 6-Cyano-pyridine-3-sulfonic acid [1-(6-cyclopropyl-1-ethyl-1H-imidazo[4,5-c]pyridin-2-yl)-ethyl]-amide] |  |

| inhibition at 3.5 µM [%] | inhibition at 3.7 µM [%] | Structure (SMILES) | further results |
| --- | --- | --- | --- |
|  | 89 | CCn1c([C@@H](C)NS(=O)(=O)c2ccc(Cl)c3cccnc23)nc2ccc(C(F)(F)F)cc21 [Example 52, 5-Chloro-N-{(1R)-1-[1-ethyl-6-(trifluoromethyl)-1H-benzimidazol-2-yl]ethyl}-quinoline-8-sulfonamide] |  |
| 94.5 |  | CCn1c([C@@H](C)NS(=O)(=O)c2cnc(NN)c(Cl)c2)nc2ccc(C(F)(F)F)cc21 [Example 128, R-5-chloro-N-(1-(1-ethyl-6-(trifluoromethyl)-1H-benzo[d]imidazol-2-yl)ethyl)-6-hydrazinylpyridine-3-sulfonamide] |  |
|  |  | CCn1c([C@@H](C)NS(=O)(=O)c2ccccc2)nc2ccc(C(F)(F)F)cc21 [Example 50, N-{(1R)-1-[1-Ethyl-6-(trifluoromethyl)-1H-benzimidazol-2-yl]ethyl}benzenesulfonamide] | inhibition at 3.3 µM (at 3.30 μM (run with this as top concentration)): 92.1% |
|  | 91.3 | CCOC(=O)c1ccc2nc([C@@H](C)NS(=O)(=O)c3ccc(Cl)cc3)n(CC)c2c1 (stereo in doubt) [Example 67, Ethyl 2-(1-{[(4-chlorophenyl)sulfonyl]amino}-ethyl)-1-ethyl-1H-benzimidazole-6-carboxylate] |  |
|  | 16.4 | CC(C)Cn1c(C(C)NS(=O)(=O)c2ccc(Cl)cc2)nc2ccccc21 (centres unmarked) [Example 19, 4-Chloro-N-[1-(1-isobutyl-1H-benzimidazol-2-yl)ethyl]-benzenesulfonamide] | EC50 (one or the other of the two Transfluor assays, Edg-1 Transfluor U2OS cells, S1P ligand): 10.3 µM |
| 96.7 |  | CCn1c([C@@H](C)NS(=O)(=O)c2cccc(Cl)c2)nc2ccc(C(F)(F)F)cc21 [Example 123, 3-Chloro-N-{(1R)-1-[1-ethyl-6-(trifluoromethyl)-1H-benzimidazol-2-yl]ethyl}benzenesulfonamide] |  |
| 93.4 |  | CCn1c([C@@H](C)NS(=O)(=O)c2ccc(Cl)cc2)nc2c(F)cccc21 [Example 90, 4-Chloro-N-[(1R)-1-(1-ethyl-4-fluoro-1H-benzimidazol-2-yl)ethyl]benzenesulfonamide] |  |
|  | 8.88 | CCn1c([C@@H](C)NS(=O)(=O)c2ccc(Cl)cc2)nc2ccc(C(=O)N3CCOCC3)cc21 (stereo in doubt) [Example 73, 4-Chloro-N-{1-[1-ethyl-6-(morpholin-4-ylcarbonyl)-1H-benzimidazol-2-yl]ethyl}benzenesulfonamide] |  |
| 84.7 |  | CCn1c(C2(NS(=O)(=O)c3ccc(F)cc3)CCC2)nc2ccc(C(F)(F)F)cc21 [Example 143, N-[1-(1-Ethyl-6-trifluoromethyl-1H-benzoimidazol-2-yl)-cyclobutyl]-4-fluoro-benzenesulfonamide] |  |
| 90.9 |  | CCn1c([C@@H](C)NS(=O)(=O)c2cccc(F)c2)nc2ccc(C(F)(F)F)cc21 [Example 120, N-{(1R)-1-[1-Ethyl-6-(trifluoromethyl)-1H-benzimidazol-2-yl]ethyl}-3-fluorobenzenesulfonamide] |  |
| 91.8 |  | CCn1c([C@@H](C)NS(=O)(=O)c2ccc(C)nc2)nc2ccc(C(F)(F)F)cc21 [Example 108, (R)-N-(1-(1-Ethyl-6-(trifluoromethyl)-1H-benzo[d]imidazol-2-yl)ethyl)-6-methylpyridine-3-sulfonamide] |  |
| 88.3 |  | CCn1c(C(C)(C)NS(=O)(=O)c2ccccc2)nc2ccc(C(F)(F)F)cc21 [Example 139, N-{(1R)-1-[1-Ethyl-6-(trifluoromethyl)-1H-benzimidazol-2-yl]-1-methyl-ethyl}benzenesulfonamide] |  |
| 91.6 |  | CCn1c([C@@H](C)NS(=O)(=O)c2ccc(C#N)cc2)nc2cnc(OC)cc21 [Example 150, (R)-4-Cyano-N-(1-(1-ethyl-6-methoxy-1H-imidazo[4,5-c]pyridin-2-yl)ethyl)benzenesulfonamide] |  |
| 69.1 |  | CCn1c([C@@H](C)NS(=O)(=O)c2ccc(C(=O)NC)nc2)nc2ccc(C(F)(F)F)cc21 [Example 172, (R)-5-[1-(1-Ethyl-6-trifluoromethyl-1H-benzoimidazol-2-yl)-ethylsulfamoyl]-pyridine-2-carboxylic acid methylamide] |  |
| 93.1 |  | CCn1c([C@@H](C)NS(=O)(=O)c2ccc(C#N)nc2)nc2ccc(C(F)(F)F)cc21 [Example 105, (R)-6-Cyano-N-(1-(1-ethyl-6-(trifluoromethyl)-1H-benzo[d]imidazol-2-yl)ethyl) pyridine-3-sulfonamide] |  |
| 90.7 |  | CCn1c([C@@H](C)NS(=O)(=O)c2ccc(Cl)cc2)nc2cnc(OC)cc21 [Example 144, (R)-4-Chloro-N-(1-(1-ethyl-6-methoxy-1H-imidazo[4,5-c]pyridin-2-yl)ethyl)benzenesulfonamide] |  |
| 93.3 |  | CCn1c([C@@H](C)NS(=O)(=O)c2ccc(C(N)=O)nc2)nc2cnc(C(F)(F)F)cc21 [Example 149, (R)-5-(N-(1-(1-Ethyl-6-(trifluoromethyl)-1H-imidazo[4,5-c]pyridin-2-yl)ethyl)sulfamoyl)picolinamide] |  |
